Data reported in patent US11518764B2, “Substituted heteroaryls as inhibitors of the BCL6 BTB domain protein-protein interaction” (Ontario Institute for Cancer Research (OICR), priority 2018, dated 2022).
Like-named read-outs stand apart in the source and are kept apart here.

How the values were obtained:
[1] = test system: BCL6 reporter construct (3xBCL6-TK-Luc) in SuDHL4 cells; assay: Cell-based luciferase assay
Protocol: Cell-Based Luciferase Assay
A BCL6 reporter construct containing three copies of the consensus BCL6 binding site, the TK promoter, and the firefly luciferase gene was stably expressed in SuDHL4 cells after lentivirus infection and selection with Blasticidin. SuDHL4-3×BCL6-TK-Luc cells were seeded into a Viewplate 384-well assay dish at 15,000 cells/well in 25 ul medium (Alpha-MEM high glucose containing 10% FBS, 25 mM HEPES, […] GlutaMAX, 100 ug/ml Normocin, and […] Gentamycin, Invitrogen). A HP D300 digital dispenser was used to dose cells with DMSO or test compounds across a 10-point range of concentrations (high dose of 10 uM), and cultures were grown in a humidified 5% CO2 incubator at 37° C. After two days, plates were removed from the incubator and equilibrated to room temperature. An equal volume of neolite reporter gene assay reagent was added to each well, and samples were processed according to manufacturer's instructions (Perkin Elmer). Luminescent signal was measured using an Envision plate reader equipped with a US-Luminescence detector.

Karpas422 cells = assay: Tumor cell growth inhibition assay; assay type: cell-based
Protocol: Tumor Cell Growth inhibition Assay
Karpas422 cells were seeded into a 96-well plate at 2,000 cells/well in 150 ul medium (Alpha-MEM containing 10% FBS, […] Normocin, and […] Gentamycin, Invitrogen). A HP D300 digital dispenser was used to dose cells with DMSO or test compounds across a 10-point range of concentrations (high dose of 5 uM), and cultures were grown in a humidified 5% CO2 incubator at 37° C. After six days, plates were removed from incubator and equilibrated to room temperature. An equal volume of ATPlite assay reagent was added to each well, and samples were processed according to manufacturer's instructions (Perkin Elmer). Luminescent signal was measured using an Envision plate reader equipped with a US-Luminescence detector.

BCL6 BTB domain = BCL6 BTB domain (Homo sapiens (Human), UniProt P41182); assay: Surface plasmon resonance (SPR) assay; assay type: binding; conditions: BCL6 BTB domain captured on SA chip, single cycle kinetics
[2] = Homo sapiens, SU-DHL-4, 48 h, read-out: Luciferase-Assay EC50, uM), SuDHL4-3xBCL6-TK-Luc cells, two days, high dose 10 uM
[3] = Homo sapiens, KARPAS-422, 144 h, read-out: Tumor Growth Inhibition in Karpas-422 (IC50, uM), Karpas422 cells, six days, ATPlite
[4] = read-out: Tumor Growth Inhibition in Karpas-422 (IC50), Karpas422 cells, six days, ATPlite
[5] = read-out: Luciferase-Assay EC50, SuDHL4-3xBCL6-TK-Luc cells, two days, high dose 10 uM

Structure (SMILES) | EC50 [1, 2] | IC50 (Karpas422 cells; [3]) | Kd (BCL6 BTB domain) | IC50 (Karpas422 cells; [4]) | EC50 [1, 5]
Cn1cnc2c(c(-c3cc(Cl)c(O)c(C(N)=O)c3)cn2CC(=O)Nc2cc(N3CC4CC3CO4)ncc2Cl)c1=O (stereo not drawn) [Compound I-154] | 0.469 µM | 0.559 µM | 33.9 nM | – | –
Cn1cnc2c(c(-c3cc(Cl)c(O)c(C(N)=O)c3)cn2CC(=O)Nc2cc(N3CC4CC4C3)ncc2Cl)c1=O (stereo not drawn) [Compound I-155] | 0.923 µM | 1.55 µM | 32.6 nM | – | –
Cn1cnc2c(c(-c3cc(Cl)c(O)c(C(N)=O)c3)cn2CC(=O)Nc2cc(N3CCCC4(CCOCC4)C3)ncc2Cl)c1=O [Compound I-156] | 0.941 µM | 0.576 µM | 49.6 nM | – | –
C[C@H]1COCCN1c1cc(NC(=O)Cn2cc(-c3cc(F)c(O)c(C(N)=O)c3)c3c(=O)n(C)cnc32)c(Cl)cn1 [Compound I-157] | 0.18 µM | 0.148 µM | 6.1 nM | – | –
Cn1cnc2c(c(-c3cc(F)c(O)c(C(N)=O)c3)cn2CC(=O)Nc2cc(N3C[C@H]4CCO[C@H]4C3)ncc2Cl)c1=O [Compound I-158] | 1.01 µM | 0.249 µM | 1.76 nM | – | –
Cc1nc2cc(Cl)c(NC(=O)Cn3cc(-c4cc(F)c(O)c(C(N)=O)c4)c4c(=O)n(C)cnc43)cc2o1 [Compound I-159] | 0.282 µM | 0.282 µM | 47.7 nM | – | –
Cc1nc2cc(Cl)c(NC(=O)Cn3cc(-c4cc(F)c(O)c(C(N)=O)c4)c4c(=O)n(C)cnc43)cc2s1 [Compound I-160] | 0.396 µM | 0.507 µM | 39.1 nM | – | –
C[C@H]1COCCN1c1cc(NC(=O)Cn2cc(-c3cc(C(N)=O)c(O)cc3F)c3c(=O)n(C)cnc32)c(Cl)cn1 [Compound I-161] | 0.971 µM | 1.29 µM | 115 nM | – | –
Cn1cnc2c(c(-c3cc(C(N)=O)c(O)cc3F)cn2CC(=O)Nc2cc(N3CC4CCC(C3)O4)ncc2Cl)c1=O [Compound I-162] | 0.676 µM | 0.643 µM | 84.7 nM | – | –
Cn1cnc2c(c(-c3cc(C(N)=O)c(O)cc3F)cn2CC(=O)Nc2cc(N3C[C@H]4CCO[C@H]4C3)ncc2Cl)c1=O [Compound I-163] | 0.572 µM | 0.93 µM | 50.5 nM | – | –
COC[C@H]1COCCN1c1cc(NC(=O)Cn2cc(-c3cc(Cl)c(O)c(C(N)=O)c3)c3c(=O)[nH]cnc32)c(Cl)cn1 [Compound I-164] | 0.601 µM | 0.251 µM | 7.76 nM | – | –
C[C@@H]1CN(c2cc(NC(=O)Cn3cc(-c4cc(Cl)c(O)c(C(N)=O)c4)c4c(=O)[nH]cnc43)c(Cl)cn2)C[C@H](C)O1 [Compound I-166] | 0.184 µM | 0.0862 µM | 15 nM | – | –
C[C@H]1COCCN1c1cc(NC(=O)Cn2cc(-c3cc(C(N)=O)c(O)c(Cl)c3F)c3c(=O)n(C)cnc32)c(Cl)cn1 [Compound I-167] | 2.81 µM | 2.34 µM | 299 nM | – | –
COc1c(O)c(C(N)=O)cc(-c2cn(CC(=O)Nc3cc(N4CCOC[C@@H]4C)ncc3Cl)c3ncn(C)c(=O)c23)c1F [Compound I-168] | 1.3 µM | 0.769 µM | 74 nM | – | –
Cn1cnc2c(c(-c3cc(C(N)=O)c(O)c(Cl)c3F)cn2CC(=O)Nc2cc(N3CCOCC3)ncc2Cl)c1=O [Compound I-169] | 1.96 µM | 1.89 µM | 206 nM | – | –
C[C@@H]1CN(c2cc(NC(=O)Cn3cc(-c4cc(C(N)=O)c(O)c(Cl)c4F)c4c(=O)n(C)cnc43)c(Cl)cn2)C[C@H](C)O1 [Compound I-170] | 2.14 µM | – | 369 nM | 10 µM | –
COc1c(O)c(C(N)=O)cc(-c2cn(CC(=O)Nc3cc(N4CCOCC4)ncc3Cl)c3ncn(C)c(=O)c23)c1F [Compound I-171] | 1.2 µM | 1.04 µM | 99.7 nM | – | –

Structure (SMILES) | EC50 [1, 2] | IC50 (Karpas422 cells; [3]) | Kd (BCL6 BTB domain) | IC50 (Karpas422 cells; [4]) | EC50 [1, 5]
COc1c(O)c(C(N)=O)cc(-c2cn(CC(=O)Nc3cc(N4C[C@@H](C)O[C@@H](C)C4)ncc3Cl)c3ncn(C)c(=O)c23)c1F [Compound I-172] | 0.797 µM | 1.34 µM | 167 nM | – | –
Cn1cnc2c(c(-c3cc(Cl)c(O)c(C(N)=O)c3)cn2CC(=O)Nc2cn3ccnc3cc2Cl)c1=O [Compound I-173] | 44.6 µM | 5.72 µM | 200 nM | – | –
Cn1cnc2c(c(-c3cc(Cl)c(O)c(C(N)=O)c3)cn2CC(=O)Nc2cc3nccn3cc2Cl)c1=O [Compound I-174] | 10 µM | 10 µM | 2950 nM | – | –
Cn1cnc2c(c(-c3cc(F)c(O)c(C(N)=O)c3)cn2CC(=O)Nc2cc(N3CC4CCC(C3)O4)ncc2Cl)c1=O [Compound I-176] | 0.239 µM | 0.137 µM | 6.06 nM | – | –
CN1CCOC2(CCN(c3cc(NC(=O)Cn4cc(-c5cc(F)c(O)c(C(N)=O)c5)c5c(=O)n(C)cnc54)c(Cl)cn3)C2)C1 (stereo not drawn) [Compound I-177] | 0.629 µM | 0.331 µM | 5.88 nM | – | –
Cn1cnc2c(c(-c3cc(C(N)=O)c(O)c(F)c3F)cn2CC(=O)Nc2cc(N3CCOCC3)ncc2Cl)c1=O [Compound I-178] | 0.96 µM | 0.877 µM | 62.1 nM | – | –
C[C@@H]1CN(c2cc(NC(=O)Cn3cc(-c4cc(C(N)=O)c(O)c(F)c4F)c4c(=O)n(C)cnc43)c(Cl)cn2)C[C@H](C)O1 [Compound I-179] | 0.612 µM | 0.681 µM | 77.7 nM | – | –
C[C@H]1COCCN1c1cc(NC(=O)Cn2cc(-c3cc(C(N)=O)c(O)c(F)c3F)c3c(=O)n(C)cnc32)c(Cl)cn1 [Compound I-180] | 1.37 µM | 2.18 µM | 45.4 nM | – | –
Cn1cnc2c(c(-c3cc(Cl)c(O)c(C(N)=O)c3)cn2CC(=O)Nc2cc3cnn(C)c3cc2Cl)c1=O [Compound I-181] | 33 µM | 10 µM | 617 nM | – | –
Cn1cc2cc(NC(=O)Cn3cc(-c4cc(Cl)c(O)c(C(N)=O)c4)c4c(=O)n(C)cnc43)c(Cl)cc2n1 [Compound I-182] | 1.41 µM | 1.03 µM | 86.3 nM | – | –
CN1CCc2cc(NC(=O)Cn3cc(-c4cc(Cl)c(O)c(C(N)=O)c4)c4c(=O)n(C)cnc43)c(Cl)cc21 [Compound I-183] | 3.91 µM | 10 µM | 221 nM | – | –
CN1CCOC2(CCN(c3cc(NC(=O)Cn4cc(-c5cc(C(N)=O)c(O)cc5F)c5c(=O)n(C)cnc54)c(Cl)cn3)C2)C1 (stereo not drawn) [Compound I-184] | 0.348 µM | 0.26 µM | 37.4 nM | – | –
Cn1cnc2c(c(-c3cc(Cl)c(O)c(C(N)=O)c3)cn2CC(=O)Nc2c(Cl)cnc(N3CCOCC3)c2F)c1=O [Compound I-185] | 3.44 µM | – | 118 nM | 2.2 µM | –
CN1CCN(c2cc(NC(=O)Cn3cc(-c4cc(C(N)=O)c(O)c(Cl)c4F)c4c(=O)n(C)cnc43)c(Cl)cn2)CC1 [Compound I-188] | 4.75 µM | 2.95 µM | 435 nM | – | –
COc1c(O)c(C(N)=O)cc(-c2cn(CC(=O)Nc3cc(N4CCN(C)CC4)ncc3Cl)c3ncn(C)c(=O)c23)c1F [Compound I-189] | 1.69 µM | 2.19 µM | 143 nM | – | –
Cn1cnc2c(c(-c3cc(Cl)c(O)c(C(N)=O)c3)cn2CC(=O)Nc2c(Cl)cnc(N3CCOCC3)c2F)c1=O [Compound I-191] | – | – | 122 nM | 4.72 µM | 5.42 µM
C[C@@H]1CN(c2cc(NC(=O)Cn3cc(-c4cc(C(N)=O)c(O)c(Cl)c4F)c4c(=O)n(C)cnc43)c(Cl)cn2)C[C@H](C)O1 [Compound I-192] | – | – | 757 nM | 1.24 µM | 3.98 µM
